The subject of the test is human mixed lymphocyte reaction (MLR). The test can be described thus: human mixed lymphocyte reaction (MLR), serum free variation. It counts as cell-based. To be noted: serum-free medium AIM V, Table 3. The protocol: In vitro Assay of Biological Activity (Serum Free MLR)
The in viitro immunosuppressant activity of the compounds of the present invention can also be determined using a variation of the human mixed lymphocyte reaction (MLR) assay described by Kino, T. et al. in Transplantation Proceedings, XIX(5):36-39, Suppl. 6 (1987). In this assay, the cell culture was performed in a serum-free medium, AIM V (GibcoBRL Life Technologies, Grand Island, N.Y.), instead of the usual RPMI 1640 plus 10% heat-inactivated fetal bovine serum medium. The final cell concentrations of the responder and stimulator peripheral blood mononuclear cells were, respectively, 5×10^5/mL and 2×10^6/mL of cells pooled from four donors.

As a reminder, the IC50 is the concentration that gives 50% inhibition.

The compound `CC[C@@H]1/C=C(\C)C[C@H](C)C[C@H](OC)[C@H]2O[C@@](O)(C(=O)C(=O)N3CCCC[C@H]3C(=O)O[C@H](/C(C)=C/[C@@H]3CC[C@H]([S+]([O-])CC(=O)OCc4ccccc4)[C@H](OC)C3)[C@H](C)[C@@H](O)CC1=O)[C@H](C)C[C@@H]2OC` (single isomer, unassigned) [Example 54] gave an IC50 (Homo sapiens, Lymphocyte) of 8.7 nM.
The same measure, in the same setting: to `CC[C@@H]1/C=C(\C)C[C@H](C)C[C@H](OC)[C@H]2O[C@@](O)(C(=O)C(=O)N3CCCC[C@H]3C(=O)O[C@H](/C(C)=C/[C@@H]3CC[C@H]([S+]([O-])CCC(=O)OCc4ccccc4)[C@H](OC)C3)[C@H](C)[C@@H](O)CC1=O)[C@H](C)C[C@@H]2OC` (single isomer, unassigned) [Example 62] belongs 29.2 nM.
`CC[C@@H]1/C=C(\C)C[C@H](C)C[C@H](OC)[C@H]2O[C@@](O)(C(=O)C(=O)N3CCCC[C@H]3C(=O)O[C@H](/C(C)=C/[C@@H]3CC[C@H]([S+]([O-])CCC(=O)OC(C)C)[C@H](OC)C3)[C@H](C)[C@@H](O)CC1=O)[C@H](C)C[C@@H]2OC` (single isomer, unassigned) [Example 65] came in with an IC50 (Homo sapiens, Lymphocyte) of 32 nM.
Compound `CCC(CC)OC(=O)CC[S+]([O-])[C@H]1CC[C@@H](/C=C(\C)[C@H]2OC(=O)[C@@H]3CCCCN3C(=O)C(=O)[C@]3(O)O[C@H]([C@@H](OC)C[C@@H](C)C/C(C)=C/[C@@H](CC)C(=O)C[C@H](O)[C@H]2C)[C@@H](OC)C[C@H]3C)C[C@H]1OC` (single isomer, unassigned) [Example 67] gave an IC50 (Homo sapiens, Lymphocyte) of 25.6 nM.
Still for that read-out and setting: to `CC[C@@H]1/C=C(\C)C[C@H](C)C[C@H](OC)[C@H]2O[C@@](O)(C(=O)C(=O)N3CCCC[C@H]3C(=O)O[C@H](/C(C)=C/[C@@H]3CC[C@H]([S+]([O-])CCC(=O)N(C)O)[C@H](OC)C3)[C@H](C)[C@@H](O)CC1=O)[C@H](C)C[C@@H]2OC` (single isomer, unassigned) [Example 69] belongs 6.24 nM.
Same read-out and setting: next, `CC[C@@H]1/C=C(\C)C[C@H](C)C[C@H](OC)[C@H]2O[C@@](O)(C(=O)C(=O)N3CCCC[C@H]3C(=O)O[C@H](/C(C)=C/[C@@H]3CC[C@H]([S+]([O-])CC(=O)O)[C@H](OC)C3)[C@H](C)[C@@H](O)CC1=O)[C@H](C)C[C@@H]2OC` (single isomer, unassigned) [Example 73]: 9.6 nM.
Consider `CC[C@@H]1/C=C(\C)C[C@H](C)C[C@H](OC)[C@H]2O[C@@](O)(C(=O)C(=O)N3CCCC[C@H]3C(=O)O[C@H](/C(C)=C/[C@@H]3CC[C@H](SC(=O)C(C)NC(C)=O)[C@H](OC)C3)[C@H](C)[C@@H](O)CC1=O)[C@H](C)C[C@@H]2OC` (single isomer, unassigned) [Example 117A], for which the IC50 (Homo sapiens, Lymphocyte) amounted to 2.4 nM.
Take `CC[C@@H]1/C=C(\C)C[C@H](C)C[C@H](OC)[C@H]2O[C@@](O)(C(=O)C(=O)N3CCCC[C@H]3C(=O)O[C@H](/C(C)=C/[C@@H]3CC[C@H](SC(=O)C(C)NC(C)=O)[C@H](OC)C3)[C@H](C)[C@@H](O)CC1=O)[C@H](C)C[C@@H]2OC` (single isomer, unassigned) [Example 117B]: it took 2.5 nM to reach half-maximal inhibition (IC50).
`CCC1C=C(C)CC(C)CC(OC)C2OC(O)(C(=O)C(=O)N3CCCCC3C(=O)OC(C(C)=CC3CCC(SC(C)=O)C(OC)C3)C(C)C(O)CC1=O)C(C)CC2OC` (stereo not shown) [Example 2] registered an IC50 (Homo sapiens, Lymphocyte) of 0.16 nM. That is a sub-nanomolar value.
The same measure, in the same setting: next, `CCC1C=C(C)CC(C)CC(OC)C2OC(O)(C(=O)C(=O)N3CCCCC3C(=O)OC(C(C)=CC3CCC(S)C(OC)C3)C(C)C(O)CC1=O)C(C)CC2OC` (stereo not drawn) [Example 8A, 32-epi-Thiol Ascomycin]: 0.75 nM; `CCC1C=C(C)CC(C)CC(OC)C2OC(O)(C(=O)C(=O)N3CCCCC3C(=O)OC(C(C)=CC3CCC(SCCC(=O)Oc4ccccc4)C(OC)C3)C(C)C(O)CC1=O)C(C)CC2OC` (stereo not shown) [Example 8]: 1.8 nM; `CCC1C=C(C)CC(C)CC(OC)C2OC(O)(C(=O)C(=O)N3CCCCC3C(=O)OC(C(C)=CC3CCC(SCCC(=O)OC)C(OC)C3)C(C)C(O)CC1=O)C(C)CC2OC` (stereo not shown) [Example 9]: 8.9 nM.
On to `CCOC(=O)CCSC1CCC(C=C(C)C2OC(=O)C3CCCCN3C(=O)C(=O)C3(O)OC(C(OC)CC(C)CC(C)=CC(CC)C(=O)CC(O)C2C)C(OC)CC3C)CC1OC` (stereo not shown) [Example 10], for which the IC50 (Homo sapiens, Lymphocyte) is 3.2 nM.
Regarding `CCC1C=C(C)CC(C)CC(OC)C2OC(O)(C(=O)C(=O)N3CCCCC3C(=O)OC(C(C)=CC3CCC(SCCC(=O)OCCOC)C(OC)C3)C(C)C(O)CC1=O)C(C)CC2OC` (stereo not shown) [Example 11], the IC50 (Homo sapiens, Lymphocyte) is 2.1 nM.
Same read-out and setting: next, `CCC1C=C(C)CC(C)CC(OC)C2OC(O)(C(=O)C(=O)N3CCCCC3C(=O)OC(C(C)=CC3CCC(SCCC(=O)OCC(F)(F)F)C(OC)C3)C(C)C(O)CC1=O)C(C)CC2OC` (stereo not shown) [Example 12]: 1.7 nM; `CCC1C=C(C)CC(C)CC(OC)C2OC(O)(C(=O)C(=O)N3CCCCC3C(=O)OC(C(C)=CC3CCC(SCCC(=O)OCCO)C(OC)C3)C(C)C(O)CC1=O)C(C)CC2OC` (stereo not shown) [Example 13]: 3.1 nM; `CCC1C=C(C)CC(C)CC(OC)C2OC(O)(C(=O)C(=O)N3CCCCC3C(=O)OC(C(C)=CC3CCC(SCCC(=O)OC4CCCCC4)C(OC)C3)C(C)C(O)CC1=O)C(C)CC2OC` (stereo not shown) [Example 14]: 6.2 nM.
Same read-out and setting: to `CCC1C=C(C)CC(C)CC(OC)C2OC(O)(C(=O)C(=O)N3CCCCC3C(=O)OC(C(C)=CC3CCC(SCCC(=O)OC(C)(C)C)C(OC)C3)C(C)C(O)CC1=O)C(C)CC2OC` (stereo not shown) [Example 15] belongs 1.5 nM.
In the case of `CCC1C=C(C)CC(C)CC(OC)C2OC(O)(C(=O)C(=O)N3CCCCC3C(=O)OC(C(C)=CC3CCC(SCCC(=O)OCCN(C)C)C(OC)C3)C(C)C(O)CC1=O)C(C)CC2OC` (stereo not shown) [Example 16], half-maximal inhibition (Homo sapiens, Lymphocyte) (IC50) required 2.2 nM.
The compound `CCC1C=C(C)CC(C)CC(OC)C2OC(O)(C(=O)C(=O)N3CCCCC3C(=O)OC(C(C)=CC3CCC(SCCC(=O)OCCCS(=O)(=O)O)C(OC)C3)C(C)C(O)CC1=O)C(C)CC2OC` (stereo not shown) [Example 17] showed an IC50 (Homo sapiens, Lymphocyte) of 31.2 nM. This IC50 is about 14-fold higher than that of the compound before.
`CCC1C=C(C)CC(C)CC(OC)C2OC(O)(C(=O)C(=O)N3CCCCC3C(=O)OC(C(C)=CC3CCC(SCCC(=O)O)C(OC)C3)C(C)C(O)CC1=O)C(C)CC2OC` (stereo not shown) [Example 19] gave a half-inhibitory concentration (IC50) (Homo sapiens, Lymphocyte) of 2.9 nM.
On the same count and under the same terms, next, `CCC1C=C(C)CC(C)CC(OC)C2OC(O)(C(=O)C(=O)N3CCCCC3C(=O)OC(C(C)=CC3CCC(SCCC(=O)OC(C)C)C(OC)C3)C(C)C(O)CC1=O)C(C)CC2OC` (stereo not shown) [Example 20]: 12.7 nM; `CCC(CC)OC(=O)CCSC1CCC(C=C(C)C2OC(=O)C3CCCCN3C(=O)C(=O)C3(O)OC(C(OC)CC(C)CC(C)=CC(CC)C(=O)CC(O)C2C)C(OC)CC3C)CC1OC` (stereo not shown) [Example 21]: 5.4 nM; `CCC1C=C(C)CC(C)CC(OC)C2OC(O)(C(=O)C(=O)N3CCCCC3C(=O)OC(C(C)=CC3CCC(SCCC(N)=O)C(OC)C3)C(C)C(O)CC1=O)C(C)CC2OC` (stereo not shown) [Example 22]: 0.02 nM.
On the same count and under the same terms, next, `CCC1C=C(C)CC(C)CC(OC)C2OC(O)(C(=O)C(=O)N3CCCCC3C(=O)OC(C(C)=CC3CCC(SCCC(=O)N4CCOCC4)C(OC)C3)C(C)C(O)CC1=O)C(C)CC2OC` (stereo not shown) [Example 23]: 0.04 nM; `CCC1C=C(C)CC(C)CC(OC)C2OC(O)(C(=O)C(=O)N3CCCCC3C(=O)OC(C(C)=CC3CCC(SCCC(=O)NO)C(OC)C3)C(C)C(O)CC1=O)C(C)CC2OC` (stereo not shown) [Example 24]: 0.8 nM; `CCC1C=C(C)CC(C)CC(OC)C2OC(O)(C(=O)C(=O)N3CCCCC3C(=O)OC(C(C)=CC3CCC(SCCC(=O)N(C)O)C(OC)C3)C(C)C(O)CC1=O)C(C)CC2OC` (stereo not shown) [Example 25]: 0.2 nM.
Still for that read-out and setting: next, `CCC1C=C(C)CC(C)CC(OC)C2OC(O)(C(=O)C(=O)N3CCCCC3C(=O)OC(C(C)=CC3CCC(SCCC(=O)N(O)C(C)C)C(OC)C3)C(C)C(O)CC1=O)C(C)CC2OC` (stereo not shown) [Example 26]: 7 nM; `CCC1C=C(C)CC(C)CC(OC)C2OC(O)(C(=O)C(=O)N3CCCCC3C(=O)OC(C(C)=CC3CCC(SCC(=O)OCc4ccccc4)C(OC)C3)C(C)C(O)CC1=O)C(C)CC2OC` (stereo not shown) [Example 27]: 3.7 nM.
`CCC1C=C(C)CC(C)CC(OC)C2OC(O)(C(=O)C(=O)N3CCCCC3C(=O)OC(C(C)=CC3CCC(SCC(=O)OC)C(OC)C3)C(C)C(O)CC1=O)C(C)CC2OC` (stereo not shown) [Example 28] registered an IC50 (Homo sapiens, Lymphocyte) of 1.6 nM.
Compound `CCC1C=C(C)CC(C)CC(OC)C2OC(O)(C(=O)C(=O)N3CCCCC3C(=O)OC(C(C)=CC3CCC(SCC(=O)OC(C)(C)C)C(OC)C3)C(C)C(O)CC1=O)C(C)CC2OC` (stereo not shown) [Example 29] yielded an IC50 (Homo sapiens, Lymphocyte) of 1.8 nM. The IC50 values of the last two compounds are within 1.5-fold of each other.
On the same count and under the same terms, to `CCC1C=C(C)CC(C)CC(OC)C2OC(O)(C(=O)C(=O)N3CCCCC3C(=O)OC(C(C)=CC3CCC(SCC(=O)O)C(OC)C3)C(C)C(O)CC1=O)C(C)CC2OC` (stereo not shown) [Example 30] belongs 9.1 nM; to `CCOC(=O)CSC1CCC(C=C(C)C2OC(=O)C3CCCCN3C(=O)C(=O)C3(O)OC(C(OC)CC(C)CC(C)=CC(CC)C(=O)CC(O)C2C)C(OC)CC3C)CC1OC` (stereo not shown) [Example 31], 8.2 nM.
On to `CCC1C=C(C)CC(C)CC(OC)C2OC(O)(C(=O)C(=O)N3CCCCC3C(=O)OC(C(C)=CC3CCC(SCC(=O)OC(C)C)C(OC)C3)C(C)C(O)CC1=O)C(C)CC2OC` (stereo not shown) [Example 32], for which 6.5 nM corresponded to half-maximal inhibition (Homo sapiens, Lymphocyte) (IC50).
Turning to `CCC1C=C(C)CC(C)CC(OC)C2OC(O)(C(=O)C(=O)N3CCCCC3C(=O)OC(C(C)=CC3CCC(SCC(=O)OCC(F)(F)F)C(OC)C3)C(C)C(O)CC1=O)C(C)CC2OC` (stereo not shown) [Example 33], the IC50 (Homo sapiens, Lymphocyte) turned out to be 47 nM. Against the preceding compound, the IC50 is about 7.2-fold higher.
Compound `CCC1C=C(C)CC(C)CC(OC)C2OC(O)(C(=O)C(=O)N3CCCCC3C(=O)OC(C(C)=CC3CCC(SCC(=O)OCCO)C(OC)C3)C(C)C(O)CC1=O)C(C)CC2OC` (stereo not shown) [Example 34] had an IC50 (Homo sapiens, Lymphocyte) of 60.8 nM.
The same measure, in the same setting: to `CCC1C=C(C)CC(C)CC(OC)C2OC(O)(C(=O)C(=O)N3CCCCC3C(=O)OC(C(C)=CC3CCC(SCC(=O)OCCOC)C(OC)C3)C(C)C(O)CC1=O)C(C)CC2OC` (stereo not shown) [Example 35] belongs 27.1 nM.

The values above are taken from patent publication US5604234A, “Substituted thiol macrolactam immunomodulators” (Abbott Laboratories, priority 1995, dated 1997).
